This assay can be described thus: Cytotoxicity against human HL60 cells after 24 hrs by MTT assay. The format is functional, cell-based. The following applies: HL-60, 24 h. On the technique in general: Tetrazolium assays rely on reduction of a dye to a coloured formazan, in cell work by metabolically active cells.

Results on five molecules are retold here after ChEMBL document CHEMBL3351660, “Isolation and total syntheses of cytotoxic cryptolactones A1, A2, B1, and B2: α,β-unsaturated δ-lactones from a Cryptomyzus sp. aphid” (J Nat Prod, 2014).

One may read the IC50 as the point on the concentration scale where inhibition reaches its midpoint. Higher therefore signals a need for much substance. For `CCCCCCCCCC(=O)C[C@H](O)C[C@@H]1CC=CC(=O)O1`, the IC50 came to 1200 nM.
Next, `CCCCCCCCCCCC(=O)C[C@H](O)C[C@@H]1CC=CC(=O)O1`: 970 nM.
The molecule `COc1cccc2c1C(=O)c1c(O)c3c(c(O)c1C2=O)C[C@@](O)(C(=O)CO)C[C@@H]3O[C@H]1C[C@H](N)[C@H](O)[C@H](C)O1` [DOXORUBICIN] showed an IC50 of 140 nM.
To `CCCCCCCCCC(=O)C[C@@H](O)C[C@@H]1CC=CC(=O)O1` belongs 5300 nM.
To `CCCCCCCCCCCC(=O)C[C@@H](O)C[C@@H]1CC=CC(=O)O1` belongs 4900 nM.
